According to patent US20050153985A1, “Methods of treating acute inflammation in animals with p38 map kinase inhibitors” (priority 2003, published 2005):
“Also recorded” adds a separate entry of the source.

System: E. coli (MacDonald 487) induced mastitis
Assay: E. coli induced mastitis in lactating cows, treatment 13 hours after intramammary challenge
Format: in vivo, lactating Holstein cows
Conditions: 10 mg/kg IV; for mean E. coli colony counts in milk after treatment: 11-168 hours, FIG. 10; for mean E. coli colony counts in milk after treatment / milk somatic cell count (SCC) / mean whey PGE2 levels after treatment: compared to infected; for mean E. coli colony counts in milk after treatment / milk clinical scores / gland clinical scores: non-medicated controls; for whey PGE2 levels at 11 hours after treatment: relative to level at time 0; for milk produced during the 13 days after treatment: based on mean daily milk production values from FIG. 2, infected, non-medicated cow 365 lbs; for cumulative clinical scores: compared to controls, FIG. 5; for milk production loss associated with mastitis following treatment: compared to infected cows treated with vehicle, FIG. 2; for milk somatic cell count (SCC) / mean whey PGE2 levels after treatment: non-medicated control cows; for milk somatic cell count (SCC): FIG. 6; for mean whey PGE2 levels after treatment: FIG. 9; for milk produced during the 13 days after treatment compared with infected, non-medicated cow: comparison in words; for total WBC numbers (peripheral blood) / total PMN numbers (peripheral blood): data analyzed for 0-72 hours, vs controls; for total WBC numbers (peripheral blood): FIG. 7; for total PMN numbers (peripheral blood): FIG. 8; for milk clinical scores / gland clinical scores: vs infected; for milk clinical scores: FIG. 3; for gland clinical scores: FIG. 4
Description: Thirty-three lactating Holstein cows were randomly allotted to 5 treatment groups blocked by milk production and days in milk. Milk and blood samples and temperature data were collected at the morning milking on day −1. One normal quarter was selected from each cow based on clinical scores and California Mastitis Test (CMT) results performed at morning milking on day −1. After the evening milking on […], selected quarters were infused with approximately 30 cfu of E. coli (MacDonald 487). Milk and blood samples and temperature data were collected prior to treatment at the morning milking on day 0. Cows were treated after the morning milking on day 0 according to the study design. After treatment, milk and blood samples and temperature data were collected at 11, 24, 35, 48, 72, 144, 168, 192, and 216 hours. Clinical scores of infused quarters and milk production were assessed at each milking. Milk samples were analyzed for culture (E. coli), SCC, TNF-α and PGE2 and blood leukograms were determined. [table] Assessment of test article efficacy was determined based upon a comparison of the treatment effect on each variable versus the challenged, non-medicated group. Data were analyzed using the MIXED procedure of PC-SAS version 6.12. The model included treatment, time and their interaction. Covariance within cows across time was modeled using the Repeated statement analysis with a […] covariance structure to account for unequally spaced sampling times. Tests for significance (P≦0.10) were based upon the main treatment effect compared with the challenged, non-medicated group. The P value of ≦0.10 was selected based on the number of animals per treatment group and the conservative nature of the SAS procedure. […] In all, 27 of 27 quarters challenged developed clinical mastitis.

**Q.** Which “mean E. coli colony counts in milk after treatment” value does the source give for `Nc1nccc(-c2c(-c3ccc(F)cc3)ncn2C2CCNCC2)n1` [MAPKi #1] here?
**A.** Its value is “significantly decreased; also recorded: Significant improvement”.

**Q.** And the “whey PGE2 levels at 11 hours after treatment” value?
**A.** The value was “decline”.

**Q.** And the “milk produced during the 13 days after treatment” value?
**A.** The value was 847 lbs.

**Q.** And the cumulative clinical scores?
**A.** Its cumulative clinical scores is “significantly lower; also recorded: Significant improvement”.

**Q.** And the “milk production loss associated with mastitis following treatment” value?
**A.** Its value is “significantly less milk production loss; also recorded: Significant improvement”.

**Q.** And the “milk somatic cell count (SCC)” value?
**A.** The value was “trend towards lower SCC”.

**Q.** And the “mean whey PGE2 levels after treatment” value?
**A.** The value was “significant reduction; also recorded: Significant improvement”.

**Q.** What about the “milk produced during the 13 days after treatment compared with infected, non-medicated cow” value of the same molecule?
**A.** The value was “more than twice as much milk”.

**Q.** And the “total WBC numbers (peripheral blood)” value?
**A.** The value was “returned to pre-challenge levels significantly faster; also recorded: Significant improvement”.

**Q.** What about the “total PMN numbers (peripheral blood)” value of the same molecule?
**A.** The value was “returned to pre-challenge levels significantly faster”.

**Q.** And the milk clinical scores?
**A.** Its milk clinical scores is “significantly improved; also recorded: Significant improvement”.

**Q.** What about the gland clinical scores of the same molecule?
**A.** The gland clinical scores was “Significantly improved; also recorded: Significant improvement”.

**Q.** What does the source list for `CC(C)n1c(=O)n(C)c2cc(-c3[nH]c(-c4cnccn4)nc3-c3ccc(F)cc3)ccc21` [MAPKi #2]?
**A.** mean E. coli colony counts in milk after treatment: decline in milk E. coli numbers compared to controls but the difference was not significant; also recorded: reduced; whey PGE2 levels at 11 hours after treatment: remained at the same level; milk produced during the 13 days after treatment: 689 lbs; cumulative clinical scores: significantly lower; also recorded: Significant reductions; mean whey PGE2 levels after treatment: significant reduction; milk produced during the 13 days after treatment compared with infected, non-medicated cow: produced more milk than control cows; total WBC numbers (peripheral blood): returned to pre-challenge levels significantly faster; total PMN numbers (peripheral blood): returned to pre-challenge levels significantly faster; milk clinical scores: significantly improved; also recorded: Significant reductions; gland clinical scores: Significantly improved; also recorded: Significant reductions

**Q.** What does the source list for `CC(=O)Nc1nc(-c2cccc(C)c2)c(-c2ccc3c(c2)n(C)c(=O)n3CC(C)C)[nH]1` [MAPKi #3]?
**A.** mean E. coli colony counts in milk after treatment: did not show a decline; whey PGE2 levels at 11 hours after treatment: continue to rise; milk produced during the 13 days after treatment: 366 lbs; milk production loss associated with mastitis following treatment: no trend for improved; milk somatic cell count (SCC): trend towards lower SCC; mean whey PGE2 levels after treatment: significant reduction; also recorded: significantly reduced; milk produced during the 13 days after treatment compared with infected, non-medicated cow: produced the same amount of milk as infected, non-medicated control cows; milk clinical scores: no trend for improved; gland clinical scores: Significantly improved
